# Experiments:
# [1] = Acidic pH reversed-phase HPLC of centrifuged and filtered insulin, IGF-I and insulin/IGF-I mixtures; type: physicochemical
# Description: Human insulin was gently inverted several times to mix the suspension. Approximately 1 mL of sample was withdrawn into an insulin syringe. The insulin was discharged into a centrifuge tube, then centrifuged at 3000 r.p.m. for 10 minutes. The centrifuge step was designed to remove human insulin suspension from solution. After centrifugation, the insulin sample was filtered through a 0.22 μm filter to further remove human insulin suspension. After filtration the solution was analyzed by using the acidic pH reversed-phase HPLC method described below: […]
# solvent A: 0.1% trifluoroacetic acid solvent B: 0.1% trifluoroacetic acid in acetonitrile […]
# column temperature: 50° C. […]
# injection volume: 25 μg/injection
# This solution was analyzed by the above HPLC method with no sample preparation step.
# IGF-I was diluted to 1 mg/mL using IGF-I placebo. The diluted sample was analyzed by the above HPLC method.
# Human insulin was mixed with IGF-I in an insulin syringe using the mixing method described above. Immediately after mixing, the mixture was injected into a centrifuge tube, then gently vortexed for 1-2 seconds. After vortexing, the mixture was centrifuged at 3000 r.p.m. for 10 minutes, then filtered through a 0.22 μm filter to remove human insulin suspension. The filtered sample was then analyzed by the acidic pH reversed-phase HPLC method described above.
# [2] = Plasma total and free IGF-I levels in the IDDM clinical study; type: in vivo, human; settings: 2-4 hours after rhIGF-I injection
# Excerpt: At the end of the lead-in period the patients were randomized to administer either rhIGF-I or placebo as an additional injection immediately before their morning insulin injections. Patients were allocated using an adaptive randomization procedure that stratified based on Tanner stage and the glycosylated hemoglobin value on day -28 of the lead-in period. A seven-day window period was allowed between day -1 of the lead-in period and day 1 of the treatment period. The subjects were admitted to the hospital the afternoon preceding day 1 of treatment and received their usual insulin dose and diet. On day 1, an IV cannula was inserted into the distal forearm or antecubital fossa. A single dose of rhIGF-I (80 μg/kg) or placebo was administered SC, followed by a SC insulin injection and breakfast. The dosing of IGF-I in the morning was for safety reasons. On day 1, the a.m. regular insulin dose was reduced by 1/3in both groups as a precaution against the development of hypoglycemia. Blood samples were obtained for future assay every 15 minutes for the next 3 hours. […]
# Plasma levels of GH, IGF-I, free IGF-I, IGF-II, IGFBP-1, IGFBP-2, and IGFBP-3 were measured. […] Total plasma IGF-I concentrations were determined by radioimmunoassay (RIA) following acid-ethanol extraction as described by Lieberman et al., supra. […]
# patients with IDDM [3] = test: Safety assessments in the IDDM clinical study (hypoglycemia, laboratory profiles, body weight); type: in vivo, human
# Description: The primary safety laboratory evaluations were serum biochemical and thyroid profiles, CBC, urinalysis, 24-hour urinary albumin excretion rate and creatinine clearance. Hypoglycemia was defined by a BG level equal to or lower than 50 mg/dL with or without symptomatology. This definition of hypoglycemia was used for purposes of statistical analysis.
# Patients with at least two weeks of post randomization data were included in the analysis. […] The data are summarized by mean±SE for each group. Comparisons between the two groups were performed using the Wilcoxon rank sum test for continuous variables and Fisher's exact test for discrete data. All tests were two-tailed and a p-value less than or equal to 0.05 was considered statistically significant.
# STZ diabetic rats = test: Plasma glucose after SC injection in STZ diabetic rats (Studies 1-3); type: in vivo, rat
# Description: Forty 7-8 week-old male SD rats were received from Charles River Laboratories and one day later injected with STZ 75 mg/kg IP. Five days later rats were bled via a tail vein, serum was obtained, and glucose concentration measured. All animals with blood glucose <200 mg/dL were not considered diabetic and were removed from the study. […] The right jugular vein was then isolated through a small SC incision and cannulated using a 0.02 inch×0.037 inch beveled silicon rubber-tipped cannula. Cannulas were flushed and checked for patency using heparin (10 U/mL) before closing wounds using 4-0 silk suture thread. Cannulas were "heparin locked" using ~50 μl heparin (100 U/mL) just before the animals were placed on a heated pad for recovery. Rats were placed in their vivarium cage when ambulatory.
# The cannulas were flushed daily with fresh heparin/saline to maintain patency. Two days after cannulation, Study 1 (see below) was performed and two days later, Study 2. […]
# Plasma glucose concentrations were measured using a Chem 1A serum chemistry analyzer (Miles Laboratories, Tarrytown, N.Y.). Insulin in plasma was measured by rat-specific radioimmunoassay (RIA) (Linco Research Inc., St. Charles, Mo.). Plasma IGF-I was measured by RIA after acid-ethanol extraction of the samples. […]
# patients with IDDM [4] = test: Four-week randomized placebo-controlled double-blind study of rhIGF-I plus insulin in IDDM: glycemic control and insulin usage; type: in vivo, human
# Excerpt: Forty-three patients (22 males and 21 females) with IDDM, ages 8-17 years, were recruited at three university-based diabetes clinics. The eligibility criteria were as follows:
# The study design included a 4-week lead-in period, a 4-week treatment period, and a 2-week wash-out period (FIG. 13). Throughout the study the patients continued to receive two injections of regular and NPH insulin daily. At study entry the patients were provided with detailed instructions on home blood glucose (BG) monitoring technique. They were instructed to test BG before breakfast, lunch, dinner, and the evening snack as well as any times of symptomatic hypoglycemia. The glucose values were automatically stored in the meter (One Touch II--Lifescan Inc., Milpitas, Calif.) and electronically transferred to a personal computer at the study site during each clinic visit. During the lead-in period the patients were counseled weekly on general diabetes care and dietary management (day -28 and -14 at the clinic, day -21 and -7 over the phone). During this period the patients were provided with specific goals of glycemic control and were instructed to call the study sites as often as needed for assistance with insulin adjustment.
# At the end of the lead-in period the patients were randomized to administer either rhIGF-I or placebo as an additional injection immediately before their morning insulin injections. Patients were allocated using an adaptive randomization procedure that stratified based on Tanner stage and the glycosylated hemoglobin value on day -28 of the lead-in period. A seven-day window period was allowed between day -1 of the lead-in period and day 1 of the treatment period. The subjects were admitted to the hospital the afternoon preceding day 1 of treatment and received their usual insulin dose and diet. On day 1, an IV cannula was inserted into the distal forearm or antecubital fossa. A single dose of rhIGF-I (80 μg/kg) or placebo was administered SC, followed by a SC insulin injection and breakfast. The dosing of IGF-I in the morning was for safety reasons. On day 1, the a.m. regular insulin dose was reduced by 1/3in both groups as a precaution against the development of hypoglycemia. Blood samples were obtained for future assay every 15 minutes for the next 3 hours. The patients were encouraged to be active and exercise after the initial 3-hour sampling period. Discharge from the hospital occurred on day 3 or 4 of treatment. The patients were then contacted by phone on day 5 and seen as outpatients on days 7, 14, 21, and 28 of treatment and 14 days after the cessation of dosing. The patients were instructed on dietary and diabetes management at each follow-up appointment.
# For the entire four-week treatment period, the rhIGF-I and placebo doses remained constant (80 μg/kg SC q a.m.). However, the insulin doses were adjusted in an attempt to achieve the following BG targets: fasting blood glucose (FBG) 80-120 mg/dl (4.4-6.7 mmol/L) for age greater than 12 years and 80-140 mg/dL (4.4-7.8 mmol/L) for age lower than 12 years; 80-180 mg/dL (4.4-10.0 mmol/L) at any other time. A physical exam was performed on day -28 of the lead-in period, on days 1, 7, 21 and 28 of the treatment period, and on day 14 of the wash-out period. The treatment period was followed by a two-week wash-out period, during which the patients remained on insulin therapy only and dose adjustments continued as necessary to meet the glycemic goals.
# The primary indices of glycemic control were: 1) HbA1 was measured at day -28 of the lead-in, as well as at days 1 and 28 of the treatment; 2) the average of the four daily home glucose monitoring values over the last ten days of the lead-in period was compared to the last ten days of treatment. The glycosylated hemoglobin was assayed by affinity chromatography (SmithKline Beecham Clinical Laboratories). The reference range was 4.4-6.1%.
# Patients with at least two weeks of post randomization data were included in the analysis. […]
# [5] = Mixing one volume of human insulin with an equal volume of IGF-I: pH, color and appearance; type: physicochemical
# Excerpt: One volume of human insulin was mixed with an equal volume of IGF-I using the following procedure:
# 1) Draw air into syringe equal to the amount of human insulin for mixing. Insert the needle into the human insulin bottle and inject air. Withdraw the needle.
# 3) Turn the bottle and syringe upside down.
# 4) Make sure the tip of the needle is in the IGF-I, withdraw the correct dose of IGF-I into the syringe.
# 5) Before removing the needle from the bottle, check the syringe for air bubbles which reduce the amount of IGF-I in it. If bubbles are present, hold the syringe straight up and tap its sides until the bubbles float to the top. Push them out with the plunger and withdraw the correct dose.
# 6) Remove the needle from the bottle of IGF-I and insert it into the bottle of human insulin. Turn the bottle and syringe upside down. Hold the bottle and syringe firmly in one hand and shake gently (no shaking for regular human insulin). Make sure the tip of the needle is in the insulin, withdraw the dose of human insulin.
# [6] = last 10 days of treatment period, Mean ± SEM
substance,measurement,setting,value
"IGF-I: rhIGF-I (Genentech): 10 mg/mL IGF-I, 5.84 mg/mL NaCl, 9.0 mg/mL benzyl alcohol, 2.0 mg/mL polysorbate 20, 50 mM sodium acetate, pH 5.4",IGF-I intact and unoxidized,"[1]; IGF-I formulation alone, FIG. 1C",approximately 99%
same,IGF-I precipitated,[1]; immediately after mixing with HUMULIN R,~25%
same,free IGF-I level compared with corresponding Tanner stage placebo group,[2],higher
same,body weight,patients with IDDM [3]; day 28 of treatment,55 ± 17 kg
same,"biochemical, lipid, and thyroid profiles",patients with IDDM [3]; throughout the duration of the study,remained within normal limits
same,median amount of hypoglycemic episodes,"patients with IDDM [3]; treatment period, BG equal to or lower than 50 mg/dL",6
same,blood glucose levels after 6 hours,"STZ diabetic rats; Study 1, 6 hours after SC injection",returned to basal values
same,blood glucose levels,"STZ diabetic rats; Study 1, twenty minutes post-injection, SC, rhIGF-I 500 μg and/or NPH insulin 5U",218.3±38.1 mg %
same,average number of NPH units used per kg body weight,patients with IDDM [4]; during treatment,0.65±0.14 units used per kg body weight
same,"Mean Plasma Glucose Concentrations, Pre-bedtime, Treatment",patients with IDDM [4]; [6],171 ± 51 mg/dL
same,"Mean Plasma Glucose Concentrations, Pre-breakfast, Treatment",patients with IDDM [4]; [6],176 ± 39 mg/dL
same,"Mean Plasma Glucose Concentrations, Pre-dinner, Treatment",patients with IDDM [4]; [6],199 ± 47 mg/dL
same,"Mean Plasma Glucose Concentrations, Pre-lunch, Treatment",patients with IDDM [4]; [6],142 ± 56 mg/dL
same,mean reduction of HbA1 during the treatment period,"patients with IDDM [4]; rhIGF-I 80 μg/kg SC q a.m. plus regular and NPH insulin, 4 weeks",1.8±1.25%
same,average amount of regular insulin used,patients with IDDM [4]; treatment phase,0.20±0.10 insulin units used daily per kg of body weight
same,Color and Appearance Before Mixing,[5],"colorless, clear"
same,pH Before Mixing,[5],5.4

# — patent publication US5783556A, “Formulated insulin-containing composition” (Genentech, Inc., priority 1996, dated 1998)
